Results reported in patent publication US5578601A, “Nonpeptide bradykinin antagonists” (Sterling Winthrop Inc., priority 1995, dated 1996).
Counter-ions that a name gives are not always drawn. Like-named read-outs stand apart in the source and are kept apart here.

Key:
bradykinin B2 receptor = molecular target: T1, bradykinin B2 receptor (Homo sapiens, UniProt P30411); assay: [3H]-bradykinin radioligand competitive binding to human IMR-90 fetal lung fibroblasts (bradykinin B2 receptor); conditions: human IMR-90 cells, 2 h, 4° C, pH 7.4, mean values from 2-3 experiments
T1 construct: These cells contain the bradykinin B2 receptor as previously described; endogenous in cells; host or cells: human IMR-90 fetal lung fibroblasts
T1 sequence (P30411 1-391): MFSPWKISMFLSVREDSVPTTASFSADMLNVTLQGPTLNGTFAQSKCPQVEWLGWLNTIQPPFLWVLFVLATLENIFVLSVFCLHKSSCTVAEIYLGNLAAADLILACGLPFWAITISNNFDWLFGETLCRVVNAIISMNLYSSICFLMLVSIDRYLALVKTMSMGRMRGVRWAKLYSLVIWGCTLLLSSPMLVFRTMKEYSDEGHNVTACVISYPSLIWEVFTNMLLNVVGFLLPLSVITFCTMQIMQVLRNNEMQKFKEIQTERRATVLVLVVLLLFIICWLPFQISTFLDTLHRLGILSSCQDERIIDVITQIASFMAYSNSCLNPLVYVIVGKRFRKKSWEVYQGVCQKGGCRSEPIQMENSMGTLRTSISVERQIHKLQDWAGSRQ
Procedure: The receptor binding affinity (KI) of the compounds of the present invention was determined in [^3 H]-bradykinin radioligand binding studies using human IMR-90 fetal lung fibroblasts. […] Briefly stated, harvested IMR-90 cells were resuspended to the desired cell concentration in ice cold buffer containing phosphate buffered saline (PBS) pH-7.4, sodium azide (0.02%), 0.1% BSA, PMSF (1 mM), DTT (1 mM), and captopril (1 mM). For competitive inhibition binding studies, cells were incubated with bradykinin (1-2 nM) in the absence or presence of increasing concentrations of competing compound. All assay mixtures were incubated for 2 hours at 4° C. The binding assays were terminated by filtration through Whatman GF/B filters on a Brandel Cell Harvester and the filters were washed with 3×1 ml aliquots of ice cold PBS containing 0.1% BSA. All filters were presoaked in 0.1% polyethylenimine to decrease nonspecific filter binding.

rhinovirus infection = conditions: intranasal, experimentally induced infection; cited from earlier work
[1] = tested on: inflammation and hyperalgesia; conditions: intraplantar carrageenan; cited from earlier work
nociception/hyperalgesia = conditions: several different animal models of nociception/hyperalgesia; cited from earlier work

Row | Compound | Ki (bradykinin B2 receptor; read-out: IMR 90 Ki) [µM] | also measured
1 | CCCC[P+](CCCC)(CCCC)Cc1ccc(NC(=O)C(Cc2ccc(C(=O)c3ccccc3)cc2)NC(=NC2CCCCC2)NC2CCCCC2)cc1 (stereo not shown) [Example 3, Phosphonium, [[4-[[3-(4-benzoylphenyl)-2-[[bis(cyclohexylamino)methylene]amino]-1-oxopropyl]amino]phenyl]methyl]tributyl-, chloride, monohydrochloride] | 5.8 | –
2 | CCCC[P+](CCCC)(CCCC)Cc1ccc(NC(=O)C(Cc2ccc3ccccc3c2)N=C(NCCC)NCCCc2ccccc2)cc1 (stereo not shown) [Example 10, Phosphonium, tributyl[[4-[[3-(2-naphthalenyl)-1-oxo-2-[[[(3-phenylpropyl)amino](propylamino)methylene]amino]propyl]amino]phenyl]methyl]-, chloride, monohydrochloride] | 1.95 | –
3 | CCCC[P+](CCCC)(CCCC)Cc1ccc(NC(=O)C(Cc2csc3ccccc23)N=C(NC2CCCCC2)NC2CCCCC2)cc1 (stereo not shown) [Example 13, Phosphonium, [[4-[[3-benzo[b]thien-3-yl-2-[[bis(cyclohexylamino)methylene]amino]-1-oxopropyl]amino]phenyl]methyl]tributyl-, chloride, monohydrochloride] | 0.43 | –
4 | CCCC[P+](CCCC)(CCCC)Cc1cccc(NC(=O)C(Cc2ccc3ccccc3c2)N=C(NC2CCCCC2)NC2CCCCC2)c1 (stereo not shown) [Example 17, Phosphonium, [[3-[[2-[[bis(cyclohexylamino)methylene]amino]-3-(2-naphthalenyl)-1-oxopropyl]amino]phenyl]methyl]tributyl-, chloride, monohydrochloride] | 3 | –
5 | O=C(NC1CN2CCC1CC2)C(Cc1ccc(Cl)cc1)NC(=NC1CCCCC1)NC1CCCCC1 (stereo not drawn) [Example 22, 4-chlorophenylpropanamide, N-1-azabicyclo[2.2.2]oct-3-yl-α-[[bis(cyclohexylamino)methylene]amino]-, dihydrochloride] | – | Ki (bradykinin B2 receptor; IMR 90 Ki): 2.9 µM
6 | O=C(Nc1cccc2cnccc12)C(Cc1ccc2ccccc2c1)N=C(NC1CCCCC1)NC1CCCCC1 (stereo not drawn) [Example 24, 2-Naphthalenepropanamide, α-[[bis(cyclohexylamino)methylene]amino]-N-5-isoquinolinyl-, monohydrochloride] | 2.54 | –
7 | O=C(NCc1nc2ccccc2[nH]1)C(Cc1ccc2ccccc2c1)N=C(NC1CCCCC1)NC1CCCCC1 (stereo not drawn) [Example 25, 2-Naphthalenepropanamide, N-(1H-benzimidazol-2-ylmethyl)-α-[[bis(cyclohexylamino)methylene]amino]-, monohydrochloride] | 5.3 | –
8 | NPC-567 | – | beneficial effects on the course of rhinovirus infection (rhinovirus infection): failed to demonstrate beneficial effects; antagonism of inflammation and hyperalgesia [1]: antagonized; antinociceptive activity (nociception/hyperalgesia): antinociceptive
